The experiment concerns polyglutamine-induced caspase-3 activation, cell assay. The experiment can be described thus: blockers of polyQ-driven CASP3 activation – cell-based (AID 1583).

Usually EC50 stands for the concentration giving half of the maximal effect. Read a low EC50 as higher potency in that assay.

On to `C[C@@]1(C(=O)O)CC[C@]2(C)CC[C@]3(C)C4=CC=C5C=C(O)C(=O)C=C5[C@]4(C)CC[C@@]3(C)[C@@H]2C1`, for which the EC50 came out at 4630 nM. That is a single-digit micromolar value.

As for `CC(=O)[O][Hg][c]1ccccc1`, the EC50 was 1740 nM. This EC50 lies about 2.7-fold lower than the previous one.

`CO[C@H]1[C@H](O)[C@@H](O[C@H]2CC[C@]3(C=O)C4CC[C@]5(C)[C@@H](C6=CC(=O)OC6)CC[C@]5(O)C4CC[C@@H]3C2)O[C@@H](C)[C@@H]1O` (some centres undefined) displayed an EC50 of 93.2 nM.

As for `CC(=O)O[C@H]1C[C@H](O[C@H]2[C@@H](O)C[C@H](O[C@H]3[C@@H](O)C[C@H](O[C@H]4CC[C@@]5(C)C(CCC6C5C[C@@H](O)[C@]5(C)[C@@H](C7=CC(=O)OC7)CC[C@]65O)C4)O[C@@H]3C)O[C@@H]2C)O[C@H](C)[C@H]1O[C@@H]1O[C@H](CO)[C@@H](O)[C@H](O)[C@H]1O` (some centres undefined), the EC50 is 7470 nM.

The molecule `CO[C@H]1[C@H](O)[C@H](O[C@H]2CC[C@]3(C)C4CC[C@]5(C)C(C6=CC(=O)OC6)CC[C@]5(O)C4CC[C@@H]3C2)O[C@@H](C)[C@@H]1O` (some centres undefined) came in with an EC50 of 78.6 nM.

In turn, `C[C@H]1O[C@@H](O[C@H]2[C@@H](O)C[C@H](O[C@H]3[C@@H](O)C[C@H](O[C@H]4CC[C@]5(C)C6CC[C@]7(C)[C@@H](C8=CC(=O)OC8)CC[C@]7(O)C6CC[C@@H]5C4)O[C@@H]3C)O[C@@H]2C)C[C@H](O)[C@@H]1O` (some centres undefined) came in with an EC50 of 189 nM.

Take `CCCCC(CC)CN=C(N)NC(N)=NCCCCCCN=C(N)NC(N)=NCC(CC)CCCC` (centres undefined): the EC50 came out at 1670 nM.

With `C[C@]12CCC3C(CC[C@]4(O)C[C@@H](O)CC[C@]34C=O)[C@@]1(O)CCC2C1=CC(=O)OC1` (some centres undefined), the EC50 stood at 1680 nM.

Consider `O[N+]1=CC=CCC1=S.On1ccccc1=S.[Zn]`, for which the half-maximal effective concentration (EC50) came to 855 nM.

(Values after PubChem BioAssay AID1583 (NINDS Approved Drug Screening Program, 2009).)
